Paper PMC4775085 (ACS chemical neuroscience, 2015)

Tests used:
HDAC4 = HDAC4 (Homo sapiens, UniProt P56524); test: HDAC4 enzymatic inhibition assay
HDAC8 = biological target: T1, HDAC8 (Homo sapiens, UniProt Q9BY41); test: HDAC8 enzymatic inhibition assay
T1 sequence (Q9BY41 1-377): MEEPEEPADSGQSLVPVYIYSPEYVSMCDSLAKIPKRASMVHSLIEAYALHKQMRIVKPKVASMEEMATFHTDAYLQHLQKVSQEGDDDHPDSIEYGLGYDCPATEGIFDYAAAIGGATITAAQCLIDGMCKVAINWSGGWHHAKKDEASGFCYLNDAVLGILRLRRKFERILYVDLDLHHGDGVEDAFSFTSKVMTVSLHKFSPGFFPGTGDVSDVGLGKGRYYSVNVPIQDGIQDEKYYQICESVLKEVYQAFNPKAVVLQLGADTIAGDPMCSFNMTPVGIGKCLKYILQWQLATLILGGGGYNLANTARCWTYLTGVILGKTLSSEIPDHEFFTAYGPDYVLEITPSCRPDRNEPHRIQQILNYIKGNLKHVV

HDAC11 = biological target: T2, HDAC11 (Homo sapiens, UniProt Q96DB2); test: HDAC11 enzymatic inhibition assay
T2 sequence (Q96DB2 1-347): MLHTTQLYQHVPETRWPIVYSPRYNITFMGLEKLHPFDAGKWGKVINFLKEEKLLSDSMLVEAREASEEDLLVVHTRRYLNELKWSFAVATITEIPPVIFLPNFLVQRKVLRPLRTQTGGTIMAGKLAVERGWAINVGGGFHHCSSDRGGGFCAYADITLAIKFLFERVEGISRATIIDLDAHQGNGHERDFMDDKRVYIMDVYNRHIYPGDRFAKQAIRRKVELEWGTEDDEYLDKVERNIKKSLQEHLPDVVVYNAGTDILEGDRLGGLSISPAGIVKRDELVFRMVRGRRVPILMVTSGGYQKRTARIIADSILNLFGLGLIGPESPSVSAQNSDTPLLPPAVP

mutant HSPB1 DRG neurons = test: Mitochondrial axonal transport in mutant HSPB1 DRG neurons; format: cell-based, mouse; conditions: DRG neurons from transgenic mutant HSPB1 mice, 100 nM overnight
HDAC10 = biological target: T3, HDAC10 (Homo sapiens, UniProt Q969S8); test: HDAC10 enzymatic inhibition assay
T3 sequence (Q969S8 1-669): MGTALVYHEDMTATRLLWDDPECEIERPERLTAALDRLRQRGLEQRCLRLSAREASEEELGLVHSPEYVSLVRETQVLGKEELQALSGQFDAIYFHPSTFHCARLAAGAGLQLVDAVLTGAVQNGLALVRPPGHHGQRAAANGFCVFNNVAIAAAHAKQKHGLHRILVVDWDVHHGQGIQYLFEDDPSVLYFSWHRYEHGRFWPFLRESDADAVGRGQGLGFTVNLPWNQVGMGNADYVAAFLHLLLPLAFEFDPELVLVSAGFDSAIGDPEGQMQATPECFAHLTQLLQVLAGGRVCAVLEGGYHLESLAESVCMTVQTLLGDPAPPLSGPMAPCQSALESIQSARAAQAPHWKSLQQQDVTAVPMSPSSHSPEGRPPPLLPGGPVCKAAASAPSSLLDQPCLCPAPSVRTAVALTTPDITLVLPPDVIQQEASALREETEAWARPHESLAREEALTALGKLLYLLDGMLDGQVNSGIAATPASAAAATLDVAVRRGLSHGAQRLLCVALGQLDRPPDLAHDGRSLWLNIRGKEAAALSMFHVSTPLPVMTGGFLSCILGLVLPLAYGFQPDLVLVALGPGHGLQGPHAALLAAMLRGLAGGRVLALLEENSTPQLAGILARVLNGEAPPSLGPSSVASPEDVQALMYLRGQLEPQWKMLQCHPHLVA

HDAC3 = HDAC3 (Homo sapiens, UniProt O15379); test: HDAC3 enzymatic inhibition assay
Sequence of HDAC3 (O15379 whole entry): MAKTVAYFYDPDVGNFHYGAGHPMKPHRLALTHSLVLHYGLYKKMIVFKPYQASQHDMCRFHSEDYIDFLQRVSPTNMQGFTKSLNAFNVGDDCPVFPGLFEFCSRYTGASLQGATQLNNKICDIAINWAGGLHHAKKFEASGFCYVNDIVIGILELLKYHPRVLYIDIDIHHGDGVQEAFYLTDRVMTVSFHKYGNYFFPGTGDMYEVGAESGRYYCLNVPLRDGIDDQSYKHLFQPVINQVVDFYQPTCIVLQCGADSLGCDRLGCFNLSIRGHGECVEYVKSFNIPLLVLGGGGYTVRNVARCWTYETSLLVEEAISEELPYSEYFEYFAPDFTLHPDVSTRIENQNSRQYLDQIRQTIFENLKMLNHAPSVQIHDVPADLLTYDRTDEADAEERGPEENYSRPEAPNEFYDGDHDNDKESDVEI
Sequence of HDAC3 (Q9Y618 395-489 partner limits assumed): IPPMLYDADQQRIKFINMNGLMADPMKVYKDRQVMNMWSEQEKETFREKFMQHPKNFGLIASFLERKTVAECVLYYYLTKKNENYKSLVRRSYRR

HDAC9 = HDAC9 (Homo sapiens, UniProt Q9UKV0); test: HDAC9 enzymatic inhibition assay
Sequence of HDAC9 (Q9UKV0 whole entry): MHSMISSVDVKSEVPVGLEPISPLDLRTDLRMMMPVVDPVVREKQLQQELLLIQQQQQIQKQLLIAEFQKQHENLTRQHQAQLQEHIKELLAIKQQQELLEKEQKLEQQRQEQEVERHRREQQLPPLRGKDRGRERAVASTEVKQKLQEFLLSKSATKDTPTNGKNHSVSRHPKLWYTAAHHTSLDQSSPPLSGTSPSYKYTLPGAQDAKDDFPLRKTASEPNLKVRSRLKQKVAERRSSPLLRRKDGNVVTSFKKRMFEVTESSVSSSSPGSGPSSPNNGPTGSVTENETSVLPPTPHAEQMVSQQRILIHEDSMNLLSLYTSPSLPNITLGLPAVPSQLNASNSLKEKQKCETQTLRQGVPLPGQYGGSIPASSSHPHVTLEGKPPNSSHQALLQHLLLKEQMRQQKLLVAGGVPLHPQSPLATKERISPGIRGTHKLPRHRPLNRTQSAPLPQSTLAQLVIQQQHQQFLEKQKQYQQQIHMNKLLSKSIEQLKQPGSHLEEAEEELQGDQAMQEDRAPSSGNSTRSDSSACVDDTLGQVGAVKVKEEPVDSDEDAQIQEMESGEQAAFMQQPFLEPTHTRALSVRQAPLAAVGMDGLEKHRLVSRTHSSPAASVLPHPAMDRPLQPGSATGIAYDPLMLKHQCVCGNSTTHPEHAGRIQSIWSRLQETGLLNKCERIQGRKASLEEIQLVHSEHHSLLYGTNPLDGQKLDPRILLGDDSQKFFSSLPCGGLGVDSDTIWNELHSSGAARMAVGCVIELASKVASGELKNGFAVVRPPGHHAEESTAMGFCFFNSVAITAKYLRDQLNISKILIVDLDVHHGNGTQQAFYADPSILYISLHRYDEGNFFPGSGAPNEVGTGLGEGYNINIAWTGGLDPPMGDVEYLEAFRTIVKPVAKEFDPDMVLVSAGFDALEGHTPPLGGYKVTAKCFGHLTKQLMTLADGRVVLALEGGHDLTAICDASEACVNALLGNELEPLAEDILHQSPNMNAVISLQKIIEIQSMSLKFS

HDAC5 = HDAC5 (Homo sapiens, UniProt Q9UQL6); test: HDAC5 enzymatic inhibition assay
Sequence of HDAC5 (Q9UQL6 whole entry): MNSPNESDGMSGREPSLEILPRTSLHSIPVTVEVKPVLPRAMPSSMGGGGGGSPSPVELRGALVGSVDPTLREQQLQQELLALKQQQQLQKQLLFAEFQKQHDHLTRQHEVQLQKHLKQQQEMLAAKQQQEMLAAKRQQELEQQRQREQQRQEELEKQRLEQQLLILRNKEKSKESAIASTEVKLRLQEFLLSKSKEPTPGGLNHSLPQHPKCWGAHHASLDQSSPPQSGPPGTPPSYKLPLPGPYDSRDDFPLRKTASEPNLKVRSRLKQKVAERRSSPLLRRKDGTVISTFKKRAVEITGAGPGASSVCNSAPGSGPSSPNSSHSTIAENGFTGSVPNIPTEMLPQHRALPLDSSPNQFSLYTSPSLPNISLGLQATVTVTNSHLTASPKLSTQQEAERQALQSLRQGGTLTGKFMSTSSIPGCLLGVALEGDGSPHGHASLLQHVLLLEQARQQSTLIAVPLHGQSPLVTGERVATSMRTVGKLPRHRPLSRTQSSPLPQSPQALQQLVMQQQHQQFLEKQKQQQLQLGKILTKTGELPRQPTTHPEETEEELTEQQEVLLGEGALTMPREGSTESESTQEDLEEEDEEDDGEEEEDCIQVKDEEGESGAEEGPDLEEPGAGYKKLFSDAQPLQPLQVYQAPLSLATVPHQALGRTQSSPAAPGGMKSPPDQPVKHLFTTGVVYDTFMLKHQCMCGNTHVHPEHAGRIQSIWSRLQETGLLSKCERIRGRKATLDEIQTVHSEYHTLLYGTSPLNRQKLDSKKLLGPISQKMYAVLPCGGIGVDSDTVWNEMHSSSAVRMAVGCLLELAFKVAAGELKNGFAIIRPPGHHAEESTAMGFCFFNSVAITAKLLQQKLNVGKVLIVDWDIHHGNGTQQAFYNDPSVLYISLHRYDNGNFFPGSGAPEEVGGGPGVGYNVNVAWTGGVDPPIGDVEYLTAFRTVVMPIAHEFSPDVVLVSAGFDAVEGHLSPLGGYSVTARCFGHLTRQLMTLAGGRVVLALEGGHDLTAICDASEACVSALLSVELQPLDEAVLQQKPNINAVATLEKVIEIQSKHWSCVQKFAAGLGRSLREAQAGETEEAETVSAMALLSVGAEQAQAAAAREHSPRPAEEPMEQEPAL

Sequence of HDAC4 (P56524 whole entry): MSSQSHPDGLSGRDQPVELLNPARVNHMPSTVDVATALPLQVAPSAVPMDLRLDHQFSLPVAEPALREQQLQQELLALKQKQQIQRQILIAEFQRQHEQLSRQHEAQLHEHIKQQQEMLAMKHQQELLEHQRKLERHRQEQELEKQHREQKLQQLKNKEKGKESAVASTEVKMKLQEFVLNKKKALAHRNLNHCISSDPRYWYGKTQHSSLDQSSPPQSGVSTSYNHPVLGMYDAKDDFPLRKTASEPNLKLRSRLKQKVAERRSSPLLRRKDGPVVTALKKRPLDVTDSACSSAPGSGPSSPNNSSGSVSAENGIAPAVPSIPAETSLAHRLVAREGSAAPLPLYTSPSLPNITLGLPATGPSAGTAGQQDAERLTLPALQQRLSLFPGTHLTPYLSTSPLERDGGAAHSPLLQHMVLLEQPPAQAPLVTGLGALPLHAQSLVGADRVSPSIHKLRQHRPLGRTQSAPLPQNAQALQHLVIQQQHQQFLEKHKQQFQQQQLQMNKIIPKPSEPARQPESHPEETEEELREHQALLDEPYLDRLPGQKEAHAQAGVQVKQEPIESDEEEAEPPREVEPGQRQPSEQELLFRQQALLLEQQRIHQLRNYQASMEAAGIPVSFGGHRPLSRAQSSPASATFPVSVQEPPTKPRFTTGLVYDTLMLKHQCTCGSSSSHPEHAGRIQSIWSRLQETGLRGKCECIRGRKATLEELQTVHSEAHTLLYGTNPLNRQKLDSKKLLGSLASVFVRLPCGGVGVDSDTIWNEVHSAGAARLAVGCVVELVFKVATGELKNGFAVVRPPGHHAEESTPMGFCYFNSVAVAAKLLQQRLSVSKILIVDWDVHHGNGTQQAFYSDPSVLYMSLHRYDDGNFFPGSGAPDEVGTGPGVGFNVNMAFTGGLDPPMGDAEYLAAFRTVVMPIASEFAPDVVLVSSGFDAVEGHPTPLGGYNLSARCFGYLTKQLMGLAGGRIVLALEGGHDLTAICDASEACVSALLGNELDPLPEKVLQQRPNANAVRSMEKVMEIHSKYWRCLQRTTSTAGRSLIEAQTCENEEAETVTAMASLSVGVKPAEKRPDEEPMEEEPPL

IC50 (HDAC4): 1460 nM
IC50 (HDAC8): 368 nM
IC50 (HDAC11): 7490 nM
IC50 (HDAC10): 11800 nM
IC50 (HDAC3): 10000 nM
IC50 (HDAC9): 463 nM
IC50 (HDAC5): 397 nM
Compound: Cc1nc2ccc(F)cc2n1Cc1ccc(C(=O)NO)cc1 [30a, 4-[(6-Fluoro-2-methyl-1-benzimidazolyl)methyl]-N-hydroxybenzamide]
mitochondrial axonal transport (number of moving mitochondria per 100 μm of neurite) (mutant HSPB1 DRG neurons): able to restore the movement of mitochondria
